Measurements reported in paper PMC11359702, “Synthesis and Biochemical Evaluation of Ethanoanthracenes and Related Compounds: Antiproliferative and Pro-Apoptotic Effects in Chronic Lymphocytic Leukemia (CLL)” (Pharmaceuticals, 2024).

Legend:
PGA-1 cells [1] = assay: alamarBlue cell viability assay; conditions: for viability at 10 µM: Homo sapiens, 24 h, read-out: cell viability; for IC50: read-out: PGA-1 IC50, PGA-1, 24 h
HG-3 cells [2] = assay: alamarBlue cell viability assay; conditions: for viability at 10 µM / viability at 1 µM: Homo sapiens; for viability at 10 µM / IC50 / viability at 1 µM: HG-3, 24 h; for viability at 10 µM: read-out: cell viability, HG-3, 10 µM, 24 h, vehicle = 100%; for IC50: read-out: HG-3 IC50; for viability at 1 µM: read-out: cell viability, HG-3, 1 µM, 24 h, vehicle = 100%
SR = assay: NCI-60 five-dose assay; type: cell-based, human
RPMI-8226 = assay: NCI-60 five-dose assay; type: cell-based, human; conditions: RPMI-8226
CCRF-CEM = assay: NCI-60 five-dose assay; type: cell-based, human
[3] = test system: HG-3 and PGA-1 cell lines; assay: alamarBlue cell viability assay, mean of both CLL cell lines; type: cell-based, human; conditions: mean of HG-3 and PGA-1
leukemia cell panel = assay: NCI-60 five-dose assay, leukemia cell panel mean; type: cell-based, human; conditions: mean across the six leukemia cell lines
[4] = test system: NCI 60 cancer cell line panel; assay: NCI-60 five-dose assay, full-panel means; type: cell-based; conditions: for Mean TGI (MID TGI, total growth inhibition) / GI50: mean over NCI 60 cell line panel; for GI50: read-out: Mean GI50 (MID GI50, full-panel mean-graph mid-point)
Protocol: A number of our most promising compounds identified through preliminary cell viability testing (23c, 23d, 23f, 23h, 23l, 23m, 23n, 23o, 24f, 24l, 25n and 26n) were selected for NCI drug screening in the 60-cell-line panel. The panel includes nine subcategories based on cancer tissue types, which include leukemia, ovarian, central nervous system, breast, lung, prostate, skin, renal and colon cancer. The compounds were initially assessed in a one-dose assay at a fixed treatment concentration of 10 µM. The compounds selected for further investigation were progressed to a five-dose assay across the concentration ranges of 0.01, 0.1, 1, 10 and 100 µM [72]. The endpoints assessed in the screening protocol were GI50, TGI and LC50 [72].

PGA-1 cells [5] = conditions: 10 µM
K-562 = assay: NCI-60 five-dose assay; type: cell-based, human; conditions: K-562
MOLT-4 = assay: NCI-60 five-dose assay; type: cell-based, human; conditions: MOLT-4
HL-60(TB) = assay: NCI-60 five-dose assay; type: cell-based, human; conditions: HL-60(TB)
HG-3 cells [6] = conditions: 10 µM
[7] = HPLC stability study in phosphate buffers; type: physicochemical; conditions: 37 °C
Protocol: A preliminary stability study was carried out on selected chalcones, maleic anhydride and maleimide adducts at acidic, neutral and basic conditions (pH 4, 7.4 and 9) using HPLC to determine suitability for further preclinical investigations. […] A possible degradation route for the maleimide 23n could be through the hydrolysis of the cyclic imide of the maleimide ring, leading to the resultant amic acid product.
All samples were analyzed using acetonitrile–water (80:20%, 70:30%, 60:40% isocratic) as the mobile phase over 10 min and a flow rate of 1 mL/min. Stock solutions were prepared by dissolving 5 mg of compounds in a mobile phase ([(acetonitrile (80%): water (20%)], 10 mL). Anhydride 22h was not detected at its retention time of 5.2 min at pH 9.0. The data presented represent the results of single experiments.
The HPLC stability studies for compounds 21a, 21i, 22h, 23a, 23g, 23n, 24a, 24h, 26a and 26n were performed using a Symmetry® column (C18, 5 µm, 4.6 × 150 mm), a Waters 2487 Dual Wavelength Absorbance detector, and an HPLC pump: Waters 1525 binary and Autosampler; Waters 717 plus (Waters Corporation, Milford, MA, USA), mobile phase [(acetonitrile (80%) and water (20%)] with a typical run time of 10 min and a flow rate of 1 mL/min with detection at 254 nm. The selected compounds 21a, 21i, 22h, 23a, 23g, 23n, 24a, 24h, 26a and 26n (5 mg) in the mobile phase (10 mL) provided the stock solution for the analysis. The phosphate buffers were prepared at pH values of 4, 7.4 and 9, as described in the British Pharmacopoeia monograph 2019. The stock solution (30 µL) was added to the appropriate buffer (1 mL) and retained at 37 °C. Samples were then analyzed over the following 24-h period at selected time intervals (t = 0 min, 5 min, 30 min, 60 min, 90 min, 120 min and 24 h).

SMILES	melting point	viability at 10 µM (PGA-1 cells [1])	GI50 (SR)	GI50 (RPMI-8226)	GI50 (CCRF-CEM)	IC50 [3]	GI50 (leukemia cell panel)	CC50 [4]	Mean TGI (MID TGI, total growth inhibition) [4]	GI50 [4]	IC50 (PGA-1 cells [1])	cell viability (PGA-1 cells [5])	GI50 (K-562)	GI50 (MOLT-4)	GI50 (HL-60(TB))	IC50 (HG-3 cells [2])	other results
COC(=O)C1=C(C(=O)OC)C2(C=CC(=O)c3ccccc3)c3ccccc3C1c1ccccc12 [Compound 27, Dimethyl (E)-9-(3-oxo-3-phenylprop-1-en-1-yl)-9,10-dihydro-9,10-ethenoanthracene-11,12-dicarboxylate]	> 250 °C	58%	–	–	–	–	–	–	–	–	–	–	–	–	–	–	viability at 10 µM (HG-3 cells [2]): 50%
CCc1ccc(C(=O)/C=C/C23c4ccccc4C(c4ccccc42)C2C(=O)NC(=O)C23)cc1 (centres unmarked) [Compound 23c, 9-((E)-3-(4-Ethylphenyl)-3-oxoprop-1-en-1-yl)-9,10-dihydro-9,10-[3,4]epipyrroloanthracene-12,14-dione]	–	–	1.37 µM	1.87 µM	2.66 µM	3.67 µM	1.77 µM	17 µM	4.670 µM	1.91 µM	2.72 µM	7%	2.42 µM	2.23 µM	0.07 µM	4.61 µM	–
O=C(/C=C/c1c2ccccc2cc2ccccc12)c1ccncc1 [Compound 21m, (E)-3-(anthracen-9-yl)-1-(pyridin-4-yl)prop-2-en-1-one]	170 to 173 °C	43%	–	–	–	–	–	–	–	–	–	–	–	–	–	–	viability at 1 µM (HG-3 cells [2]): 50 to 61%; viability at 10 µM (HG-3 cells [2]): 37 to 54%
O=C(/C=C/c1c2ccccc2cc2ccccc12)c1ccccc1 [Compound 21f, (E)-3-(anthracen-9-yl)-1-phenylprop-2-en-1-one]	128 to 130 °C	–	–	–	–	–	–	–	–	–	–	–	–	–	–	–	–
Cc1ccc(C(=O)/C=C/c2c3ccccc3cc3ccccc23)cc1 [Compound 21j, (E)-3-(anthracen-9-yl)-1-(p-tolyl)prop-2-en-1-one]	98 to 103 °C	–	–	–	–	–	–	–	–	–	–	–	–	–	–	–	–
CCc1ccc(C(=O)/C=C/c2c3ccccc3cc3ccccc23)cc1 [Compound 21c, (E)-3-(anthracen-9-yl)-1-(4-ethylphenyl)prop-2-en-1-one]	128 to 129 °C	–	–	–	–	–	–	–	–	–	–	–	–	–	–	–	–
O=C(/C=C/c1c2ccccc2cc2ccccc12)c1ccc2ccccc2c1 [Compound 21p, (E)-3-(anthracen-9-yl)-1-(naphthalen-2-yl)prop-2-en-1-one]	160 to 164 °C	50%	–	–	–	–	–	–	–	–	–	–	–	–	–	–	–
O=C(/C=C/C12c3ccccc3C(c3ccccc31)C1C(=O)N(c3ccccc3)C(=O)C12)c1ccccc1 (centres unmarked) [Compound 24f, (E)-9-(3-Oxo-3-phenylprop-1-en-yl)-13-phenyl-9,10-dihydro-9,10-[3,4]epipyrroloanthracene-12,14-dione]	–	–	2.03 µM	1.55 µM	1.45 µM	7.24 µM	1.45 µM	72.4 µM	19.95 µM	2.09 µM	7.13 µM	26%	1.39 µM	1.23 µM	1.02 µM	7.35 µM	–
COc1cc(C(=O)/C=C/c2c3ccccc3cc3ccccc23)cc(OC)c1OC [Compound 21k, (E)-3-(Anthracen-9-yl)-1-(3,4,5-trimethoxyphenyl)prop-2-en-1-one]	160 to 164 °C	43%	–	–	–	–	–	–	–	–	–	–	–	–	–	–	viability at 1 µM (HG-3 cells [2]): 50 to 61%; viability at 10 µM (HG-3 cells [2]): 37 to 54%
O=C(/C=C/C12c3ccccc3C(c3ccccc31)C1C(=O)N(c3ccccc3)C(=O)C12)c1ccc(Cl)cc1 (centres unmarked) [Compound 24l, (E)-9-(3-(4-Chlorophenyl)-3-oxoprop-1-en-1-yl)-13-phenyl-9,10-dihydro-9,10-[3,4] epipyrroloanthracene-12,14-dione]	–	–	1.07 µM	1.16 µM	0.57 µM	1.88 µM	0.98 µM	43.7 µM	10.72 µM	1.7 µM	0.31 µM	17%	1.55 µM	0.76 µM	0.8 µM	3.45 µM	cell viability (HG-3 cells [6]): 24%
O=C(/C=C/c1c2ccccc2cc2ccccc12)c1ccc(I)cc1 [Compound 21g, (E)-3-(anthracen-9-yl)-1-(4-iodophenyl)prop-2-en-1-one]	167 to 173 °C	–	–	–	–	–	–	–	–	–	–	–	–	–	–	–	–
O=C(c1ccccc1)c1ccc(N2C(=O)C3C4c5ccccc5C(/C=C/C(=O)c5ccccn5)(c5ccccc54)C3C2=O)cc1 (centres unmarked) [Compound 26n, (E)-13-(4-Benzoylphenyl)-9-(3-oxo-3-(pyridin-2-yl)prop-1-en-1-yl)-9,10-dihydro-9,10-[3,4]epipyrroloanthracene-12,14-dione]	–	–	1.37 µM	2.49 µM	2.59 µM	1.12 µM	2.07 µM	100 µM	100.0 µM	7.58 µM	0.39 µM	18%	1.77 µM	2.29 µM	1.9 µM	1.85 µM	decrease in cell viability compared to 26f (PGA-1 cells [1]; PGA-1, 1 µM): 20%; decrease in cell viability compared to 26f (PGA-1 cells [1]; PGA-1, 10 µM): 63%; Half-life pH 4 ([7]; pH 4 buffer): 8.5 h; % remaining 24 h pH 4 ([7]; pH 4 buffer, 24 h, HPLC): 10.97%; Half-life pH 7.4 ([7]; pH 7.4 buffer): 16.5 h; % remaining 24 h pH 7.4 ([7]; pH 7.4 buffer, 24 h, HPLC): 40.39%; Half-life pH 9 ([7]; pH 9 buffer): over 24 h; % remaining 24 h pH 9 ([7]; pH 9 buffer, 24 h, HPLC): 51.20%; cell viability (HG-3 cells [6]): 4%; decrease in cell viability compared to 26f (HG-3 cells [2]; HG-3, 1 µM): 34%; decrease in cell viability compared to 26f (HG-3 cells [2]; HG-3, 10 µM): 82%
O=C(/C=C/c1c2ccccc2cc2ccccc12)c1cccs1 [Compound 21q, (E)-3-(anthracen-9-yl)-1-(thiophen-2-yl)prop-2-en-1-one]	157 to 158 °C	–	–	–	–	–	–	–	–	–	–	–	–	–	–	–	–
